Assay results taken from ChEMBL document CHEMBL3885861, “Open TG-GATES”.

Organism: Rattus norvegicus
Experiment: Open TG-GATES - Regimen: Single
Assay type: toxicity, organism-based, Sprague-Dawley
Parameters: regimen Single, gender Male, age 6 weeks
Conditions: in vivo, iv, route intravenous injection; for APTT / Bas / Eos / Fbg / Lym / MCHC / MCV / Mono / Neu / Plat / RBC / Ret / WBC / Ht / PT / Hb: tissue Blood; for KIDNEY_L / KIDNEY_R / KIDNEY_TOTAL: tissue Kidney; for LIVER: tissue Liver
[1] = 0 mg/kg, 3 h, dose level Control
[2] = 0 mg/kg, 3 h, tissue Plasma, dose level Control
[3] = 0 mg/kg, 6 h, dose level Control
[4] = 0 mg/kg, 6 h, tissue Plasma, dose level Control
[5] = 0 mg/kg, 9 h, dose level Control
[6] = 0 mg/kg, 9 h, tissue Plasma, dose level Control
[7] = 0 mg/kg, 24 h, dose level Control
[8] = 0 mg/kg, 24 h, tissue Plasma, dose level Control

**Q.** For GENTAMICIN, which TERMINAL_BW [1] is on record?
**A.** 212.9 g

**Q.** What about the APTT [1] of the same sequence?
**A.** 22 s

**Q.** And the Bas [1]?
**A.** 0%

**Q.** What about the Eos [1] of the same sequence?
**A.** 0.8%

**Q.** And the Fbg [1]?
**A.** 293.2 mg/dL

**Q.** And the Lym [1]?
**A.** 79.6%

**Q.** What about the MCHC [1] of the same sequence?
**A.** 33.9%

**Q.** What about the MCV [1] of the same sequence?
**A.** 61.4 fL

**Q.** And the Mono [1]?
**A.** 2.8%

**Q.** And the Neu [1]?
**A.** 16%

**Q.** And the Plat [1]?
**A.** 119.4 x10_4/uL

**Q.** And the RBC [1]?
**A.** 631.2 x10_4/ul

**Q.** And the Ret [1]?
**A.** 6.4%

**Q.** What about the WBC [1] of the same sequence?
**A.** 123.3 x10_2/uL

**Q.** And the KIDNEY_L [1]?
**A.** 0.9 g

**Q.** And the KIDNEY_R [1]?
**A.** 0.9 g

**Q.** What about the KIDNEY_TOTAL [1] of the same sequence?
**A.** 1.9 g

**Q.** And the LIVER [1]?
**A.** 9.3 g

**Q.** And the ALP [2]?
**A.** 1296.6 IU/L

**Q.** What about the ALT [2] of the same sequence?
**A.** 39.2 IU/L

**Q.** What about the AST [2] of the same sequence?
**A.** 70.6 IU/L

**Q.** And the CRE [2]?
**A.** 0.2 mg/dL

**Q.** And the DBIL [2]?
**A.** 0 mg/dL

**Q.** And the GLC [2]?
**A.** 187.4 mg/dL

**Q.** And the IP [2]?
**A.** 7.4 mg/dL

**Q.** What about the K [2] of the same sequence?
**A.** 4.4 meq/L

**Q.** And the LDH [2]?
**A.** 165.6 IU/L

**Q.** And the PL [2]?
**A.** 121.4 mg/dL

**Q.** And the RALB [2]?
**A.** 2.9 g/dL

**Q.** And the TBIL [2]?
**A.** 0.022 mg/dL

**Q.** What about the TC [2] of the same sequence?
**A.** 63.6 mg/dL

**Q.** And the TG [2]?
**A.** 71 mg/dL

**Q.** And the TP [2]?
**A.** 5.3 g/dL

**Q.** What about the gamma-GTP [2] of the same sequence?
**A.** 1.2 IU/L

**Q.** And the TERMINAL_BW [3]?
**A.** 209.6 g

**Q.** What about the APTT [3] of the same sequence?
**A.** 23.6 s

**Q.** And the Bas [3]?
**A.** 0%

**Q.** What about the Eos [3] of the same sequence?
**A.** 0.6%

**Q.** What about the Fbg [3] of the same sequence?
**A.** 270.6 mg/dL

**Q.** And the Ht [3]?
**A.** 39.7%

**Q.** And the MCHC [3]?
**A.** 33.6%

**Q.** What about the Mono [3] of the same sequence?
**A.** 2.6%

**Q.** What about the PT [3] of the same sequence?
**A.** 16.4 s

**Q.** And the Plat [3]?
**A.** 119.5 x10_4/uL

**Q.** And the RBC [3]?
**A.** 629 x10_4/ul

**Q.** What about the Ret [3] of the same sequence?
**A.** 7%

**Q.** And the WBC [3]?
**A.** 123.2 x10_2/uL

**Q.** And the KIDNEY_L [3]?
**A.** 0.9 g

**Q.** What about the KIDNEY_R [3] of the same sequence?
**A.** 0.9 g

**Q.** And the KIDNEY_TOTAL [3]?
**A.** 1.8 g

**Q.** And the LIVER [3]?
**A.** 8.7 g

**Q.** And the ALP [4]?
**A.** 1253 IU/L

**Q.** What about the ALT [4] of the same sequence?
**A.** 36.6 IU/L

**Q.** What about the AST [4] of the same sequence?
**A.** 70.2 IU/L

**Q.** What about the BUN [4] of the same sequence?
**A.** 11.2 mg/dL

**Q.** What about the CRE [4] of the same sequence?
**A.** 0.2 mg/dL

**Q.** What about the DBIL [4] of the same sequence?
**A.** 0 mg/dL

**Q.** What about the IP [4] of the same sequence?
**A.** 8.3 mg/dL

**Q.** What about the K [4] of the same sequence?
**A.** 4.4 meq/L

**Q.** And the LDH [4]?
**A.** 199.6 IU/L

**Q.** What about the RALB [4] of the same sequence?
**A.** 2.9 g/dL

**Q.** And the TBIL [4]?
**A.** 0.018 mg/dL

**Q.** What about the TC [4] of the same sequence?
**A.** 74 mg/dL

**Q.** What about the TG [4] of the same sequence?
**A.** 75 mg/dL

**Q.** What about the TP [4] of the same sequence?
**A.** 5.3 g/dL

**Q.** And the gamma-GTP [4]?
**A.** 1.2 IU/L

**Q.** What about the APTT [5] of the same sequence?
**A.** 22.8 s

**Q.** And the Bas [5]?
**A.** 0%

**Q.** What about the Eos [5] of the same sequence?
**A.** 1%

**Q.** And the Fbg [5]?
**A.** 313.6 mg/dL

**Q.** What about the Hb [5] of the same sequence?
**A.** 12.9 g/dL

**Q.** And the Ht [5]?
**A.** 38.5%

**Q.** What about the Lym [5] of the same sequence?
**A.** 82%

**Q.** And the MCHC [5]?
**A.** 33.5%

**Q.** What about the MCV [5] of the same sequence?
**A.** 61.2 fL

**Q.** What about the Mono [5] of the same sequence?
**A.** 2.6%

**Q.** What about the PT [5] of the same sequence?
**A.** 16 s

**Q.** What about the Plat [5] of the same sequence?
**A.** 124.4 x10_4/uL

**Q.** And the RBC [5]?
**A.** 628 x10_4/ul

**Q.** And the Ret [5]?
**A.** 6.9%

**Q.** And the WBC [5]?
**A.** 82.5 x10_2/uL

**Q.** What about the KIDNEY_L [5] of the same sequence?
**A.** 0.9 g

**Q.** And the KIDNEY_R [5]?
**A.** 0.9 g

**Q.** What about the KIDNEY_TOTAL [5] of the same sequence?
**A.** 1.8 g

**Q.** What about the LIVER [5] of the same sequence?
**A.** 8.3 g

**Q.** What about the ALP [6] of the same sequence?
**A.** 1527.6 IU/L

**Q.** And the ALT [6]?
**A.** 36.4 IU/L

**Q.** What about the AST [6] of the same sequence?
**A.** 67.4 IU/L

**Q.** What about the CRE [6] of the same sequence?
**A.** 0.2 mg/dL

**Q.** What about the DBIL [6] of the same sequence?
**A.** 0 mg/dL

**Q.** What about the GLC [6] of the same sequence?
**A.** 199.2 mg/dL

**Q.** What about the IP [6] of the same sequence?
**A.** 9.5 mg/dL

**Q.** What about the K [6] of the same sequence?
**A.** 4.1 meq/L

**Q.** And the LDH [6]?
**A.** 131.6 IU/L

**Q.** And the PL [6]?
**A.** 126.2 mg/dL

**Q.** What about the RALB [6] of the same sequence?
**A.** 2.9 g/dL

**Q.** And the TBIL [6]?
**A.** 0.022 mg/dL

**Q.** And the TG [6]?
**A.** 38.2 mg/dL

**Q.** And the TP [6]?
**A.** 5.4 g/dL

**Q.** And the gamma-GTP [6]?
**A.** 1.2 IU/L

**Q.** What about the TERMINAL_BW [7] of the same sequence?
**A.** 228.2 g

**Q.** What about the APTT [7] of the same sequence?
**A.** 23.4 s

**Q.** And the Bas [7]?
**A.** 0%

**Q.** What about the Eos [7] of the same sequence?
**A.** 1%

**Q.** What about the Fbg [7] of the same sequence?
**A.** 293.6 mg/dL

**Q.** And the Ht [7]?
**A.** 38.2%

**Q.** What about the MCHC [7] of the same sequence?
**A.** 34.3%

**Q.** What about the MCV [7] of the same sequence?
**A.** 61.9 fL

**Q.** And the Mono [7]?
**A.** 2.6%

**Q.** And the Neu [7]?
**A.** 16%

**Q.** What about the Plat [7] of the same sequence?
**A.** 125.4 x10_4/uL

**Q.** And the RBC [7]?
**A.** 618.6 x10_4/ul

**Q.** What about the Ret [7] of the same sequence?
**A.** 5.8%

**Q.** And the WBC [7]?
**A.** 109.8 x10_2/uL

**Q.** And the KIDNEY_L [7]?
**A.** 1 g

**Q.** What about the KIDNEY_R [7] of the same sequence?
**A.** 1 g

**Q.** And the KIDNEY_TOTAL [7]?
**A.** 2 g

**Q.** And the ALP [8]?
**A.** 1416.8 IU/L

**Q.** And the AST [8]?
**A.** 71.6 IU/L

**Q.** What about the BUN [8] of the same sequence?
**A.** 15 mg/dL

**Q.** What about the CRE [8] of the same sequence?
**A.** 0.2 mg/dL

**Q.** And the DBIL [8]?
**A.** 0 mg/dL

**Q.** What about the IP [8] of the same sequence?
**A.** 6.9 mg/dL

**Q.** And the K [8]?
**A.** 4.4 meq/L

**Q.** And the LDH [8]?
**A.** 156.8 IU/L

**Q.** What about the Na [8] of the same sequence?
**A.** 140.4 meq/L

**Q.** What about the PL [8] of the same sequence?
**A.** 138.2 mg/dL

**Q.** And the RALB [8]?
**A.** 3 g/dL

**Q.** What about the TBIL [8] of the same sequence?
**A.** 0.012 mg/dL

**Q.** What about the TC [8] of the same sequence?
**A.** 68.4 mg/dL

**Q.** What about the TG [8] of the same sequence?
**A.** 114.4 mg/dL

**Q.** And the TP [8]?
**A.** 5.4 g/dL

**Q.** And the gamma-GTP [8]?
**A.** 1.4 IU/L

**Q.** What about the TERMINAL_BW (10 mg/kg, 3 h, dose level Low) of the same sequence?
**A.** 211.7 g

**Q.** And the APTT (10 mg/kg, 3 h, dose level Low)?
**A.** 22.2 s

**Q.** What about the Bas (10 mg/kg, 3 h, dose level Low) of the same sequence?
**A.** 0%

**Q.** And the Eos (10 mg/kg, 3 h, dose level Low)?
**A.** 0.2%

**Q.** What about the Fbg (10 mg/kg, 3 h, dose level Low) of the same sequence?
**A.** 301.8 mg/dL

**Q.** What about the Hb (10 mg/kg, 3 h, dose level Low) of the same sequence?
**A.** 13 g/dL

**Q.** What about the Ht (10 mg/kg, 3 h, dose level Low) of the same sequence?
**A.** 38.1%
